From EP4603105A1, “PHARMACEUTICAL COMPOSITION CONTAINING CYCLIC COMPOUND HAVING SELECTIVE KRAS INHIBITORY EFFECT AGAINST HRAS AND NRAS” (CHUGAI SEIYAKU KABUSHIKI KAISHA, priority 2022, dated 2024)
Like-named read-outs stand apart in the source and are kept apart here.

Experiments:
[1] = target: GDP-bound KRAS wild-type protein (Homo sapiens, UniProt P01116); assay: Binding to KRAS by surface plasmon resonance (SPR), dissociation constant KD
Method in brief: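 GDP-bound biotin-Avi RAS captured at ~100–300 RU, 30°C, pH 7.4 HBS containing 10 µM GDP, 10 mM MgCl2, 1 mM DTT, 0.01% Tween 20 and 4% DMSO. KD by 1:1 fitting.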

[2] = target: GDP-bound NRAS wild-type protein (Homo sapiens, UniProt P01111); assay: Binding to NRAS by surface plasmon resonance (SPR), KD and KD ratio to KRAS
Method in brief: (§1)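 SPR, 30°C: Avi-biotin RAS·GDP captured via Biotin CAPture (~100–300 RU); running buffer HBS pH 7.4, 1 mM DTT, 10 mM MgCl2, 0.01% Tween 20, 10 µM GDP, 4% DMSO. Single-cycle kinetics, 100 µL/min, 75 s injections; 1:1 model → KD.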

HRAS wild-type protein = HRAS wild-type protein (Homo sapiens, UniProt P01112); assay: Binding to HRAS by surface plasmon resonance (SPR), KD and KD ratio to KRAS
Method in brief: as §1

[3] = tested on: human lung cancer strain NCI-H441; assay: NCI-H441 cell proliferation inhibitory activity (CellTiter-Glo, 4 days); assay type: cell-based; conditions: read-out: NCl-H441 IC50
Method in brief: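 Proliferation was scored by […] measured after the reagent was added to cultures kept at 37°C in 5% carbon dioxide.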

[4] = ratio of KD for GDP-bound NRAS wild-type protein to KD for KRAS
[5] = ratio of KD for HRAS wild-type protein to KD for KRAS
[6] = Single Cycle Kinetics, 1:1 binding model
[7] = ratio of KD with respect to GDP-bound NRAS wild-type protein to KD with respect to KRAS
[8] = ratio of KD with respect to HRAS wild-type protein to KD with respect to KRAS
[9] = 50% proliferation inhibitory concentration, four days

Chain of GDP-bound NRAS wild-type protein (P01111 whole entry): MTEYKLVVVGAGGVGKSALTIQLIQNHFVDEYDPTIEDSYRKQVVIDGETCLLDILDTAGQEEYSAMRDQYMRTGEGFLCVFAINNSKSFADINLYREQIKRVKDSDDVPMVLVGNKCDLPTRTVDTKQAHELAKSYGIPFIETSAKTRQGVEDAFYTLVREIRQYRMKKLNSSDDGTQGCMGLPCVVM
Chain of GDP-bound KRAS wild-type protein (P01116 1-188 isoform P01116-2): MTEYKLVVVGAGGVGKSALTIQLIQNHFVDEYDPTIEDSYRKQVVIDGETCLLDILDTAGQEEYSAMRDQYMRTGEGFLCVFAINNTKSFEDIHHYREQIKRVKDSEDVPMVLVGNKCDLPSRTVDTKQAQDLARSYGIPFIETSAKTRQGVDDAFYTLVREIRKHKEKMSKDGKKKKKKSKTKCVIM
Chain of HRAS wild-type protein (P01112 whole entry): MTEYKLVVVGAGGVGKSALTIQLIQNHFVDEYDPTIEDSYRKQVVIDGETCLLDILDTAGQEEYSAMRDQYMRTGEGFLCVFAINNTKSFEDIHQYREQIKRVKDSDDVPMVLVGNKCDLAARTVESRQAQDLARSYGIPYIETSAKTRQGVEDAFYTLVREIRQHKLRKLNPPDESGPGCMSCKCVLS

Compound	Kd ([1]; Single Cycle Kinetics) [nM]	NRAS /KRAS [2, 4]	HRAS /KRAS (HRAS wild-type protein; [5])	IC50 ([3]; NCI-H441 cells, 4 days) [nM]	Kd ([1]; 1:1 binding model) [nM]	Kd [1, 6] [nM]	NRAS /KRAS [2, 7]	HRAS /KRAS (HRAS wild-type protein; [8])	IC50 [3, 9] [nM]
C#CC[C@H]1C(=O)N[C@@H]([C@@H](C)CC)C(=O)N2CCC[C@H]2C(=O)N(C)[C@H]2C/C=C\CCN(C2=O)[C@@H](Cc2ccc(C(F)(F)F)cc2)C(=O)N(C)CC(=O)N[C@@H](CCc2ccc(C(F)(F)F)c(OC)c2)C(=O)N2C[C@H](OCC)C[C@H]2C(=O)N(C)C2(CCC2)C(=O)N(C)[C@@H](C2CCCC2)C(=O)N(C)[C@H](C(=O)N(C)C)CC(=O)N1C [PP3252]	0.082	A (a compound having 10 or more and less than 20 is denoted as A)	A (a compound having 10 or more and less than 20 is denoted as A)	4.5	–	–	–	–	–
CCOC[C@H]1C(=O)N[C@@H]([C@@H](C)CC)C(=O)N(C)CC(=O)N(C)[C@H]2C/C=C\CCN(C2=O)[C@@H](Cc2ccc(C)cc2)C(=O)N(C)CC(=O)N[C@@H](CCc2ccc(C(F)(F)F)c(OC)c2)C(=O)N2C[C@@H](C)C[C@H]2C(=O)NC2(CC(C)(C)C2)C(=O)N(C)[C@@H](C2CCCC2)C(=O)N(C)[C@H](C(=O)N(C)C)CC(=O)N1C [PP2505]	–	A (a compound having 10 or more and less than 20 is denoted as A)	B (a compound having 3 or more and less than 10 is denoted as B)	17.2	0.13	–	–	–	–
CC[C@H](C)[C@@H]1NC(=O)[C@H](CC)N(C)C(=O)C[C@@H](C(=O)N(C)C)N(C)C(=O)[C@H](C2CCCC2)N(C)C(=O)C2(CCC2)NC(=O)[C@@H]2C[C@H](C)CN2C(=O)[C@H](CCc2cc(F)c(C(F)(F)F)c(F)c2)NC(=O)CN(C)C(=O)[C@H](Cc2ccc(C(F)(F)F)cc2)N2CC/C=C\C[C@@H](C2=O)N(C)C(=O)CN(C)C1=O [PP1134]	–	–	–	–	–	0.06	A (a compound having 10 or more and less than 20 is denoted as A)	B (a compound having 3 or more and less than 10 is denoted as B)	20
CCOC[C@H]1C(=O)N[C@@H]([C@@H](C)CC)C(=O)N(C)CC(=O)N(C)[C@H]2C/C=C\CCN(C2=O)[C@@H](Cc2ccc(C)cc2)C(=O)N(C)CC(=O)N[C@@H](CCc2ccc(C(F)(F)F)c(OC)c2)C(=O)N2C[C@H](OCC)C[C@H]2C(=O)NC2(CC(C)(C)C2)C(=O)N(C)[C@@H](C2CCCC2)C(=O)N(C)[C@H](C(=O)N(CC)CC)CC(=O)N1C [PP2406]	–	A (a compound having 10 or more and less than 20 is denoted as A)	A (a compound having 10 or more and less than 20 is denoted as A)	21.3	0.29	–	–	–	–
C=CC[C@H]1C(=O)N(C)[C@H](C(=O)N(C)C)CC(=O)N(C)[C@@H](CCC)C(=O)N[C@@H]([C@@H](C)CC)C(=O)N2CCC[C@H]2C(=O)N(C)[C@H]2C/C=C\CCN(C2=O)[C@@H](Cc2ccc(C(F)(F)F)cc2)C(=O)N(C)CC(=O)N[C@@H](CCc2cc(F)c(C(F)(F)F)c(F)c2)C(=O)N2C[C@H](OCC)C[C@H]2C(=O)N(C)C2(CCC2)C(=O)N1C [PP3338]	4.6	A (a compound having 10 or more and less than 20 is denoted as A)	A (a compound having 10 or more and less than 20 is denoted as A)	104	–	–	–	–	–
CCCO[C@@H]1C[C@H]2C(=O)NC3(CC(C)(C)C3)C(=O)N(C)[C@@H](C3CCCC3)C(=O)N(C)[C@H](C(=O)N(C)CC)CC(=O)N(C)[C@@H](COCC)C(=O)N[C@@H]([C@@H](C)CC)C(=O)N3C[C@@H](C)C[C@H]3C(=O)N(C)[C@H]3C/C=C\CCN(C3=O)[C@@H](Cc3ccc(C(F)(F)F)cc3)C(=O)N(C)CC(=O)N[C@@H](CCc3ccc(C(F)(F)F)c(Cl)c3)C(=O)N2C1 [PP3407]	3.8	A (a compound having 10 or more and less than 20 is denoted as A)	A (a compound having 10 or more and less than 20 is denoted as A)	73.8	–	–	–	–	–
C#CCN1CC(=O)N(C)[C@H]2C/C=C\CCN(C2=O)[C@@H](Cc2ccc(C(F)F)cc2)C(=O)N(C)CC(=O)N[C@@H](CCc2ccc(C(F)(F)F)cc2Cl)C(=O)N2C[C@H](OC(C)C)C[C@H]2C(=O)N(C)C2(CCC2)C(=O)N(C)[C@@H](C(CC)CC)C(=O)N(C)[C@H](C(=O)N(C)C)CC(=O)N(C)[C@@H](CC(C)C)C(=O)N[C@@H]([C@@H](C)CC)C1=O [PP3495]	0.72	AA (a compound having 20 or more is denoted as AA)	A (a compound having 10 or more and less than 20 is denoted as A)	37.9	–	–	–	–	–
CCO[C@@H]1C[C@H]2C(=O)NC3(CCC3)C(=O)N(C)[C@@H](C3CCCC3)C(=O)N(C)[C@H](C(=O)N(C)C)CC(=O)N(C)[C@@H](CC3CC3)C(=O)N[C@@H]([C@@H](C)CC)C(=O)N(C)CC(=O)N(C)[C@H]3C/C=C\CCN(C3=O)[C@@H](CC3CCC(F)(F)CC3)C(=O)N(C)CC(=O)N[C@@H](CCc3cc(F)c(C(F)(F)F)c(F)c3)C(=O)N2C1 [PP1447]	–	–	–	–	–	0.12	A (a compound having 10 or more and less than 20 is denoted as A)	A (a compound having 10 or more and less than 20 is denoted as A)	28.9
CCCO[C@@H]1C[C@H]2C(=O)NC3(CC(C)(C)C3)C(=O)N(C)[C@@H](C3CCCC3)C(=O)N(C)[C@H](C(=O)N(C)CC)CC(=O)N(C)[C@@H](COCC)C(=O)N[C@@H]([C@@H](C)CC)C(=O)N3C[C@@H](F)C[C@H]3C(=O)N(C)[C@H]3C/C=C\CCN(C3=O)[C@@H](Cc3ccc(C)cc3)C(=O)N(C)CC(=O)N[C@@H](CCc3ccc(C(F)(F)F)c(Cl)c3)C(=O)N2C1 [PP3465]	0.6	A (a compound having 10 or more and less than 20 is denoted as A)	A (a compound having 10 or more and less than 20 is denoted as A)	23.3	–	–	–	–	–
CC[C@H](C)[C@@H]1NC(=O)[C@H](C)N(C)C(=O)C[C@@H](C(=O)N(C)C)N(C)C(=O)[C@H](C2CCCC2)N(C)C(=O)C2(CCC2)NC(=O)[C@@H]2CCCN2C(=O)[C@H](CCc2cc(F)c(C(F)(F)F)c(F)c2)NC(=O)CN(C)C(=O)[C@H](Cc2ccc(C(F)(F)F)cc2)N2CC/C=C\C[C@@H](C2=O)N(C)C(=O)CN(C)C1=O [PP1271]	–	–	–	–	–	0.054	AA (a compound having 20 or more is denoted as AA)	A (a compound having 10 or more and less than 20 is denoted as A)	90.7
CC[C@H](C)[C@@H]1NC(=O)[C@H](CC)N(C)C(=O)C[C@@H](C(=O)N(C)C)N(C)C(=O)[C@H](C2CCCC2)N(C)C(=O)C2(CCC2)NC(=O)[C@H](C)N(C)C(=O)[C@H](CCc2cc(F)c(C(F)(F)F)c(F)c2)NC(=O)CN(C)C(=O)[C@H](Cc2ccc(C(F)(F)F)cc2)N2CC/C=C\C[C@@H](C2=O)N(C)C(=O)CN(C)C1=O [PP1146]	–	–	–	–	–	0.32	A (a compound having 10 or more and less than 20 is denoted as A)	B (a compound having 3 or more and less than 10 is denoted as B)	202
CCO[C@@H]1C[C@H]2C(=O)NC3(CCC3)C(=O)N(C)[C@@H](C3CCCC3)C(=O)N(C)[C@H](C(=O)N3CCOCC3)CC(=O)N(C)[C@@H](CC)C(=O)N[C@@H]([C@@H](C)CC)C(=O)N3CC[C@H]3C(=O)N(C)[C@H]3C[C@@H](C)[C@@H](C)CN(C3=O)[C@@H](Cc3ccc(C(F)(F)F)cc3)C(=O)N(C)CC(=O)N[C@@H](CCc3cc(F)c(C(F)(F)F)c(F)c3)C(=O)N2C1 [PP1351]	–	–	–	–	–	0.13	A (a compound having 10 or more and less than 20 is denoted as A)	B (a compound having 3 or more and less than 10 is denoted as B)	12.8
